In brackets after ≈: the same amount, converted by molar mass. Where two headings read alike, the source gives them in different places.
Experiments:
[1] = target: recombinant S. aureus MetRS enzyme (Staphylococcus aureus, UniProt A0A0H2XID2); test: Inhibition of SaMetRS, ATP depletion assay; format: biochemical; details: read-out: (B) MetRS (S. aureus) IC50
Method: Production of recombinant S. aureus MetRSs. The SaMetRS gene (UniProtKB—A0A0H2XID2) was PCR amplified (Sense 5′-[…]-3′ (SEQ ID NO: 1) and Antisense 5′-[…]-3′ (SEQ ID NO:2)) from genomic DNA isolated from S. aureus (ATCC 29213) cultures. The PCR product was then cloned into the AVA0421 plasmid and sequence verified. The expression of recombinant protein was performed as previously described. The N-terminal 6-His fusion proteins were purified by nickel affinity chromatography followed by size exclusion gel chromatography (Superdex 75 26/60; GE Biosciences, Piscataway, N.J.).
Enzyme assays. Inhibition of SaMetRS was measured using the ATP depletion assay as previously described with some modifications. Compounds were pre-incubated for 15 minutes at room temperature in a 96-well plate with 400 μg/mL bulk E. coli tRNA, 25 nM SaMetRS, 0.1 U/mL pyrophosphatase, 0.2 mM spermine, 0.1 mg/mL bovine serum albumin, 2.5 mM dithiothreitol, 25 mM HEPES-KOH pH 7.9, 10 mM MgCl2, 50 mM KCl, and 2% DMSO. Reagents were purchased from Sigma-Aldrich or Roche. The reaction was started with the addition of 150 nM ATP and 20 μM L-methionine and after 120 minute incubation was stopped by the addition of an equal volume (50 μL) of Kinase-Glo® (Promega). Percent inhibition=100×(test compound−AVG low control)/(AVG high control−AVG low control) where the low control is all reagents except the compound and the high control is all reagents except the compounds and L-methionine. IC50 values were calculated by non-linear regression, sigmoidal-dose response, in Prism 3.0.

[2] = system: S. aureus MSSA (ATCC 29213); test: MIC susceptibility testing; format: cell-based, Staphylococcus aureus; details: S. aureus ATCC 29213; for MIC: Staphylococcus aureus, read-out: (F) S. aureus (ATCC 29213) MIC
[3] = system: E. faecium VRE (ATCC 51559); test: MIC susceptibility testing; format: cell-based, Enterococcus faecium; details: Enterococcus faecium, E. faecium ATCC 51559; read-out: (I) E. faecium (ATCC 51559) MIC
Outline: (§1)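 CLSI broth microdilution in triplicate, 5×10^5 CFU/mL final, ≤0.5% DMSO; MHB for S. aureus, CA-MHB for E. coli and E. faecium, CA-MHB plus 3% laked horse blood for S. pyogenes (5% CO2).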

MetRS (T. brucei) = target: T1, MetRS (T. brucei) (Trypanosoma brucei brucei, UniProt Q38C91); test: MetRS (T. brucei) enzyme inhibition; format: biochemical
T1 sequence (Q38C91 1-773): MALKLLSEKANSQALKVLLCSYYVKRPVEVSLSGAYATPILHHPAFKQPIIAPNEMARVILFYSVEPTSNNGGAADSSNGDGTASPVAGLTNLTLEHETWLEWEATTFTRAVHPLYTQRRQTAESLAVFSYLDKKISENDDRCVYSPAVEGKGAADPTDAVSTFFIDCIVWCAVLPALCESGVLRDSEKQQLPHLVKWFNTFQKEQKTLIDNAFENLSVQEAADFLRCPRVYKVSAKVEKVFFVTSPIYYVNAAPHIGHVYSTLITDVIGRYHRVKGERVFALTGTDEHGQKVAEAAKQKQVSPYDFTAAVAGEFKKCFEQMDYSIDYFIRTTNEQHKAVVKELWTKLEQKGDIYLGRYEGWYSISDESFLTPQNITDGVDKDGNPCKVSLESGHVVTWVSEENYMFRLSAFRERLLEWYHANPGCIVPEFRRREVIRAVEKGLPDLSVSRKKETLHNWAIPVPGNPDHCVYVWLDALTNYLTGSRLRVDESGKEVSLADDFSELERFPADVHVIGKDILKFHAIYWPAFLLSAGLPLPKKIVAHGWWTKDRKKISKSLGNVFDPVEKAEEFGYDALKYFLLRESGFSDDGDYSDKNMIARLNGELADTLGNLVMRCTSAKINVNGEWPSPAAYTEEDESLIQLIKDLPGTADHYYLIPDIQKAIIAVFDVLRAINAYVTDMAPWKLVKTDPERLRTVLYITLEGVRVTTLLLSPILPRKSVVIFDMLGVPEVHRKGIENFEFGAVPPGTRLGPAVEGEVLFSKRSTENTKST

MetRS (C. parvum) = MetRS (C. parvum) (Cryptosporidium parvum, UniProt Q5CVN0); test: MetRS (C. parvum) enzyme inhibition; format: biochemical; details: read-out: (C) MetRS (C. parvum) IC50
T. brucei = T. brucei growth inhibition; format: cell-based, Trypanosoma brucei; details: read-out: (D) T. brucei EC50
T. cruzi = T. cruzi growth inhibition; format: cell-based, Trypanosoma cruzi; details: read-out: (E) T. cruzi EC50
[4] = system: S. aureus MRSA (ATCC 33591); test: MIC susceptibility testing; format: cell-based, Staphylococcus aureus; details: Staphylococcus aureus, MRSA ATCC33591; read-out: (G) MRSA (ATCC33591) MIC
Outline: as §1

C. parvum = C. parvum growth inhibition; format: cell-based, Cryptosporidium parvum; details: read-out: (J) C. parvum EC50

recombinant S. aureus MetRS enzyme, sequence (A0A0H2XID2 2-657): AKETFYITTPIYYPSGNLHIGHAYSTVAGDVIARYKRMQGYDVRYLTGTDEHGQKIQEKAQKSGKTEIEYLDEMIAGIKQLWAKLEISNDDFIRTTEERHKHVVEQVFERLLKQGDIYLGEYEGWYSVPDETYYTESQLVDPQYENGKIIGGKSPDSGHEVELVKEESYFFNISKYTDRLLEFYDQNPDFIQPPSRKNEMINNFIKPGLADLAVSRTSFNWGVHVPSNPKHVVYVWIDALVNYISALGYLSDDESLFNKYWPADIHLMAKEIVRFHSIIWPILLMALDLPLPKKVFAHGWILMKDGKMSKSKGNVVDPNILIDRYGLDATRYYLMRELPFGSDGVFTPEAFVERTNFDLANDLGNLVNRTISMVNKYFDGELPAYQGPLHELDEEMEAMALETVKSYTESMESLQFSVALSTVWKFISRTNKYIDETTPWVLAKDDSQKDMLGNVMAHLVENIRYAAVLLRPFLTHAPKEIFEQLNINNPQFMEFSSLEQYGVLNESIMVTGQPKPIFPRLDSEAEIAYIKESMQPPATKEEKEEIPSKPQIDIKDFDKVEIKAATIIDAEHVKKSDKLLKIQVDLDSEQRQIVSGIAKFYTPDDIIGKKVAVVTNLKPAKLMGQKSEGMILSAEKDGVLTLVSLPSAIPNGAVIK
MetRS (C. parvum), sequence (Q5CVN0 entry or part of it): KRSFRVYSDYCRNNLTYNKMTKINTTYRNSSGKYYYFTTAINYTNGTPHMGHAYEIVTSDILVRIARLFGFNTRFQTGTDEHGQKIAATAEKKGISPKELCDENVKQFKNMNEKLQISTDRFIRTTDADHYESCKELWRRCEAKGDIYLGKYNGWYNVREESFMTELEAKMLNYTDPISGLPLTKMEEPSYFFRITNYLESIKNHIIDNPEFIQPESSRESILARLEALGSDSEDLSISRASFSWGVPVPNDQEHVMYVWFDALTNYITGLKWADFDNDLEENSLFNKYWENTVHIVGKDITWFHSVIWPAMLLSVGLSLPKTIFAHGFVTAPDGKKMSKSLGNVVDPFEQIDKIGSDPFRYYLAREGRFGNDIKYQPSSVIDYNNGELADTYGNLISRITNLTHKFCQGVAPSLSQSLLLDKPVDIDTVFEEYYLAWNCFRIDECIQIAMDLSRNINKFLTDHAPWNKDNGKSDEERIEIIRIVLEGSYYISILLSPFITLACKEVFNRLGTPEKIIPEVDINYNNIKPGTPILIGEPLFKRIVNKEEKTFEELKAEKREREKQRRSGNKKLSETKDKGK

Structure (SMILES) | IC50 [1] | MIC [2] | MIC [3] | IC50 (MetRS (T. brucei)) | IC50 (MetRS (C. parvum)) | EC50 (T. brucei; Trypanosoma brucei) | EC50 (T. cruzi; Trypanosoma cruzi) | MIC [4] | EC50 (T. cruzi) | EC50 (C. parvum; Cryptosporidium parvum) | EC50 (T. brucei) | (F) S. aureus (ATCC 29213) MIC [2] | EC50 (C. parvum)
COc1ccc(-c2ccc3c(=O)ccn(Cc4nc5nc(F)ccc5[nH]4)c3c2)c(Cl)c1 [Compound 2168, 7-(2-chloro-4-methoxyphenyl)-1-((5-fluoro-1H-imidazo[4,5-b]pyridin-2-yl)methyl)quinolin-4(1H)-one] | < 25 nM | > 1.25 µg/mL | > 2.5 µg/mL | < 40 nM | < 40 nM | > 200 nM | 6150 nM | – | – | – | – | – | –
COc1ccc(-c2cn(Cc3ccccc3)c3c2CN(Cc2nc4nc(Cl)ccc4[nH]2)CC3)c(Cl)c1 [Compound 2176, 2-((1-benzyl-3-(2-chloro-4-methoxyphenyl)-6,7-dihydro-1H-pyrrolo[3,2-c]pyridin-5(4H)-yl)methyl)-5-chloro-1H-imidazo[4,5-b]pyridine] | < 25 nM | > 0.5 µg/mL | – | < 40 nM | 80 nM | 40.6 nM | 283 nM | > 2.5 µg/mL | – | – | – | – | –
Fc1ccc2[nH]c(Cc3cn4c(-c5ccc(Cl)cc5Cl)cccc4n3)nc2n1 [Compound 2135, 5-(2,4-dichlorophenyl)-2-({5-fluoro-1H-imidazo[4,5-b]pyridin-2-yl}methyl)imidazo[1,2-a]pyridine] | < 25 nM | 0.592 µg/mL (≈ 1.44 µM) | 1.33 µg/mL (≈ 3.23 µM) | < 40 nM | 56.7 nM | 99.3 nM | 2160 nM | – | – | – | – | – | –
CCn1c(Cc2ccc(Cl)cc2Cl)cn(Cc2nc3ccc(Br)nc3[nH]2)c1=O [Compound 2091, 1-({5-bromo-1H-imidazo[4,5-b]pyridin-2-yl}methyl)-4-[(2,4-dichlorophenyl)-methyl]-3-ethyl-2,3-dihydro-1H-imidazol-2-one] | < 25 nM | 0.199 µg/mL (≈ 0.414 µM) | – | < 40 nM | < 40 nM | 2.8 nM | 59 nM | > 2.5 µg/mL | 40.6 nM | 598 nM | – | – | –
COCCCn1c(Cc2ccc(Cl)cc2Cl)cn(Cc2nc3ccc(F)nc3[nH]2)c1=O [Compound 2082, 4-[(2,4-dichlorophenyl)methyl]-1-({5-fluoro-1H-imidazo[4,5-b]pyridin-2-yl}methyl)-3-(3-methoxypropyl)-2,3-dihydro-1H-imidazol-2-one] | < 25 nM | 0.18 µg/mL (≈ 0.388 µM) | 0.238 µg/mL (≈ 0.513 µM) | < 40 nM | < 40 nM | – | 145 nM | 1.54 µg/mL (≈ 3.32 µM) | – | – | – | – | –
COc1cc(-c2cccc3nc(Cc4nc5nc(Cl)ccc5[nH]4)cn23)c(Cl)cc1Cl [Compound 2128, 2-({5-chloro-1H-imidazo[4,5-b]pyridin-2-yl}methyl)-5-(2,4-dichloro-5-methoxyphenyl)imidazo[1,2-a]pyridine] | < 25 nM | – | 0.24 µg/mL (≈ 0.523 µM) | < 40 nM | < 40 nM | 3.62 nM | 5.88 nM | – | 10.8 nM | 1680 nM | 3.4 nM | – | –
COc1ccc(-c2cccc3nc(Cc4nc5nc(C(F)(F)F)ccc5[nH]4)cn23)c(Cl)c1 [Compound 2166, 5-(2-chloro-4-methoxyphenyl)-2-{[5-(trifluoromethyl)-1H-imidazo[4,5-b]pyridin-2-yl]methyl}imidazo[1,2-a]pyridine] | 177 nM | > 1.25 µg/mL | > 2.5 µg/mL | < 40 nM | > 1000 nM | > 200 nM | 596 nM | – | – | – | – | – | –
O=c1n(Cc2nc3ccc(F)nc3[nH]2)cc(Cc2ccc(Cl)cc2Cl)n1CC1CCOCC1 [Compound 2087, 4-[(2,4-dichlorophenyl)methyl]-1-({5-fluoro-1H-imidazo[4,5-b]pyridin-2-yl}methyl)-3-[(oxan-4-yl)methyl]-2,3-dihydro-1H-imidazol-2-one] | < 25 nM | 0.254 µg/mL (≈ 0.518 µM) | – | < 40 nM | < 40 nM | – | 359 nM | 1.67 µg/mL (≈ 3.41 µM) | – | – | – | – | –
O=c1n(Cc2nc3nc(F)ccc3[nH]2)cc(Cc2ccc(Cl)cc2Cl)n1C1CCOCC1 [Compound 2088, 4-[(2,4-dichlorophenyl)methyl]-1-({5-fluoro-1H-imidazo[4,5-b]pyridin-2-yl}methyl)-3-(oxan-4-yl)-2,3-dihydro-1H-imidazol-2-one] | < 25 nM | 0.424 µg/mL (≈ 0.89 µM) | – | < 40 nM | < 40 nM | – | 263 nM | 1.5 µg/mL (≈ 3.15 µM) | – | – | – | – | –
CCCn1c(Cc2ccc(Cl)cc2Cl)cn(Cc2nc3ccc(Cl)nc3[nH]2)c1=O [Compound 2079, 1-({5-chloro-1H-imidazo[4,5-b]pyridin-2-yl}methyl)-4-[(2,4-dichlorophenyl)-methyl]-3-propyl-2,3-dihydro-1H-imidazol-2-one] | < 25 nM | 0.044 µg/mL (≈ 0.0976 µM) | – | < 40 nM | < 40 nM | < 0.91 nM | 26 nM | > 2.5 µg/mL | 22.5 nM | – | 1.79 nM | 0.0391 µg/mL | –
O=c1n(Cc2nc3nc(F)ccc3[nH]2)cc(Cc2ccc(Cl)cc2Cl)n1CC(F)F [Compound 2139, 4-[(2,4-dichlorophenyl)methyl]-3-(2,2-difluoroethyl)-1-({5-fluoro-1H-imidazo[4,5-b]pyridin-2-yl}methyl)-2,3-dihydro-1H-imidazol-2-one] | < 25 nM | 0.0776 µg/mL (≈ 0.17 µM) | – | < 40 nM | < 40 nM | 3.21 nM | – | 0.307 µg/mL (≈ 0.673 µM) | – | 193 nM | – | – | –
COCCn1c(Cc2ccc(Cl)cc2Cl)cn(Cc2nc3ccc(F)nc3[nH]2)c1=O [Compound 2077, 4-[(2,4-dichlorophenyl)methyl]-1-({5-fluoro-1H-imidazo[4,5-b]pyridin-2-yl}methyl)-3-(2-methoxyethyl)-2,3-dihydro-1H-imidazol-2-one] | < 25 nM | 0.818 µg/mL (≈ 1.82 µM) | – | < 40 nM | < 40 nM | – | 215 nM | > 2.5 µg/mL | – | 475 nM | – | – | 283 nM
COc1ccc(-c2cnc(N3CCN(C(C)=O)CC3)c3nc(Cc4nc5nc(Cl)ccc5[nH]4)cn23)c(Cl)c1 [Compound 2185, 1-{4-[2-({5-chloro-1H-imidazo[4,5-b]pyridin-2-yl}methyl)-5-(2-chloro-4-methoxyphenyl)imidazo[1,2-a]pyrazin-8-yl]piperazin-1-yl}ethan-1-one] | < 25 nM | 0.358 µg/mL (≈ 0.649 µM) | – | < 40 nM | < 40 nM | – | 71.6 nM | 1.2 µg/mL (≈ 2.18 µM) | 90.9 nM | 243 nM | – | – | –

Source: patent publication US11584744B2 (UNIVERSITY OF WASHINGTON, priority 2017, dated 2023)
